These results are taken from article PMC8343220, “The selectivity of α‐adrenoceptor agonists for the human α1A, α1B, and α1D‐adrenoceptors” (Pharmacology Research & Perspectives, 2021).

A word on the Kd: it is the constant that tells how readily two partners part at equilibrium. A lower Kd goes with tighter binding.

For assay [1], the target named is T1, human α1A‐adrenoceptor (Homo sapiens, UniProt P35348).
T1 construct: expressed in transfected cells; host or cells: CHO-K1
T1 sequence (P35348 1-466): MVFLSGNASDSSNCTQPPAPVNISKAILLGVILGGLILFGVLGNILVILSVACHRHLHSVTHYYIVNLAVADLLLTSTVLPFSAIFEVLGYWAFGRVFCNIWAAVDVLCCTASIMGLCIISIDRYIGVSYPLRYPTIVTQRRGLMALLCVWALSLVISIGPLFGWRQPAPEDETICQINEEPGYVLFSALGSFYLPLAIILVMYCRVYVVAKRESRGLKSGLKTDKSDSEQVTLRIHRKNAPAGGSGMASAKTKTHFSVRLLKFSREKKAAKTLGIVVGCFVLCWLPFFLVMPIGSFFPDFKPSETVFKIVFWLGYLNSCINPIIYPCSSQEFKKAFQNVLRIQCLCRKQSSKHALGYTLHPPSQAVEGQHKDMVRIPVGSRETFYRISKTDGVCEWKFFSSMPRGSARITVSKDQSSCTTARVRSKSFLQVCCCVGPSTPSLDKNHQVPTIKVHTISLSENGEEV
As to the kind of experiment: ^3H‐prazosin whole‐cell radioligand binding, CHO‐α1A cells. The settings on record: for Kd: Log KD α1A, ^3H‐prazosin whole cell binding, CHO‐α1A cells, given as log KD (negative), mean ± SEM.

Assay [2] addresses T2, human α1B‐adrenoceptor (Homo sapiens, UniProt P35368).
T2 construct: expressed in transfected cells; host or cells: CHO-K1
T2 sequence (P35368 1-520): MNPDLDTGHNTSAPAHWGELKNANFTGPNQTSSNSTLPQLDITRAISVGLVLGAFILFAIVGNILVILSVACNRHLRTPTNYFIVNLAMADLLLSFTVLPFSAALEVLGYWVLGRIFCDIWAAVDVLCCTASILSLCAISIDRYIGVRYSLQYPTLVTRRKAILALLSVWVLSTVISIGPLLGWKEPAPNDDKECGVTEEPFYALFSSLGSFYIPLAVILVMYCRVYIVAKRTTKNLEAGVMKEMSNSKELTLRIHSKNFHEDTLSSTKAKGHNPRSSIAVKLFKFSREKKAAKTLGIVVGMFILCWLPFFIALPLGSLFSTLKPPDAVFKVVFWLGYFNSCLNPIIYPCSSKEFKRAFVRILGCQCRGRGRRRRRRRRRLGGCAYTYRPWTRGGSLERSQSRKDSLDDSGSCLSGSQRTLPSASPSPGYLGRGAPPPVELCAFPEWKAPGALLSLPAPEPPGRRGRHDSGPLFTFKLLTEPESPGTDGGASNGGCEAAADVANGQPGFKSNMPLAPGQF
In words: ^3H‐prazosin whole‐cell radioligand binding, CHO‐α1B cells. The settings on record: CHO‐α1B cells.

Assay [3] has as its target T3, human α1D‐adrenoceptor (full length) (Homo sapiens, UniProt P25100).
T3 construct: human α1D‐adrenoceptor (full length) were used; expressed in transfected cells; host or cells: CHO-K1
T3 sequence (P25100 1-572): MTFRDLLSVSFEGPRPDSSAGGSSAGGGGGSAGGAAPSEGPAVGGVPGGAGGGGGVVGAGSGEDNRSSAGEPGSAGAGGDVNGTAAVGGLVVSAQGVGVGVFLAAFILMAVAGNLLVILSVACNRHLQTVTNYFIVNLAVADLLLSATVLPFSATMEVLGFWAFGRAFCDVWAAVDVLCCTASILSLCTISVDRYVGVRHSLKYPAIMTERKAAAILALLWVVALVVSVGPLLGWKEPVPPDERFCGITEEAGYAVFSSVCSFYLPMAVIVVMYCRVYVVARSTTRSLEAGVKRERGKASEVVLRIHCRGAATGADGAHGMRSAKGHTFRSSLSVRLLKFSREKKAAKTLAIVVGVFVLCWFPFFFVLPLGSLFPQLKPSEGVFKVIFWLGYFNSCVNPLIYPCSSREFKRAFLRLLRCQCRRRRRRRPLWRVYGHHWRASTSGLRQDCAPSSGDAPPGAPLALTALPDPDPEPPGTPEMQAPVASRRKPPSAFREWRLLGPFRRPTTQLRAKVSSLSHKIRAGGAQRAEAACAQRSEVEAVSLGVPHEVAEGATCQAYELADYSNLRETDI
As to the kind of experiment: ^3H‐prazosin whole‐cell radioligand binding, CHO‐α1D cells. As to conditions: for Kd: CHO‐α1D cells.

Assay [4] deals with T1, human α1A‐adrenoceptor. In words: Intracellular free calcium mobilization, CHO‐α1A cells. Format: cell-based. The settings on record: for EC50: CHO‐α1A cells, given as log EC50 (negative), read-out: Intracellular calcium release Log EC50 (converted). For orientation: Calcium assays in cells follow changes in intracellular calcium, usually with a dye or a luminescent sensor.

Assay [5] concerns the target T2, human α1B‐adrenoceptor. In words: Intracellular free calcium mobilization, CHO‐α1B cells. It is filed as cell-based. The settings on record: for EC50: CHO‐α1B cells, given as log EC50 (negative numbers), read-out: Intracellular calcium release Log EC50 (converted).
Assay [6] deals with T3, human α1D‐adrenoceptor (full length). As to the kind of experiment: Intracellular free calcium mobilization, CHO‐α1D cells. As to conditions: for Intracellular calcium release Log EC50: CHO‐α1D cells, log values given negative. Format: cell-based.
The target of assay [7] is T1, human α1A‐adrenoceptor. In words: ERK1/2‐phosphorylation (Surefire Alphascreen), CHO‐α1A cells. As to conditions: for EC50: CHO‐α1A cells, 2–4 min, ^a bi‐phasic: initial stimulatory part, ^b also active in parent CHO cells, read-out: ERK1/2‐phosphorylation Log EC50 (converted). Format: cell-based. In general terms: In Alpha technology, singlet oxygen from a donor bead excites a nearby acceptor bead.

In assay [8] the target is T2, human α1B‐adrenoceptor. As to the kind of experiment: ERK1/2‐phosphorylation (Surefire Alphascreen), CHO‐α1B cells. It is filed as cell-based. The settings on record: for EC50: CHO‐α1B cells, for bi‐phasic responses the initial stimulatory part, read-out: ERK1/2‐phosphorylation Log EC50 (converted).
Assay [9] concerns the target T3, human α1D‐adrenoceptor (full length). As to the kind of experiment: ERK1/2‐phosphorylation (Surefire Alphascreen), CHO‐α1D cells. It is filed as cell-based. As to conditions: for ERK1/2‐phosphorylation Log EC50: CHO‐α1D cells, log values given negative.
In assay [10] the test system is parental CHO cell line without any transfected receptors. As to the kind of experiment: ERK1/2‐phosphorylation, parent CHO cells without transfected receptors. It is filed as cell-based, Chinese hamster.
Assay [11] addresses T1, human α1A‐adrenoceptor. As to the kind of experiment: ^3H‐cAMP accumulation, CHO‐α1A cells. It is filed as cell-based. The settings on record: CHO‐α1A cells. (In general: Changes in cAMP serve as a functional read-out for many G protein-coupled receptors.)
In assay [12] the target is T2, human α1B‐adrenoceptor. As to the kind of experiment: ^3H‐cAMP accumulation, CHO‐α1B cells. Format: cell-based. As to conditions: CHO‐α1B cells; for cAMP accumulation % forskolin: % forskolin maximum response; for EC50: read-out: cAMP accumulation Log EC50 (converted).
Assay [13] addresses T1, human α1A‐adrenoceptor. In words: ^3H‐cAMP accumulation in the presence of 10 μM forskolin, CHO‐α1A cells. Format: cell-based. The settings on record: CHO‐α1A cells; for EC50: 10 μM forskolin, read-out: cAMP accumulation (in presence of forskolin) Log EC50 (converted); for cAMP accumulation (in presence of forskolin) Fold increase: fold increase of the forskolin response.
The target in assay [14] is T2, human α1B‐adrenoceptor. As to the kind of experiment: ^3H‐cAMP accumulation in the presence of 10 μM forskolin, CHO‐α1B cells. It is filed as cell-based. The settings on record: CHO‐α1B cells; for cAMP accumulation (in presence of forskolin) Fold increase: fold increase of the forskolin response; for EC50: in presence of forskolin, read-out: cAMP accumulation (in presence of forskolin) Log EC50 (converted).

For assay [15], the system named is parental CHO cell line without any transfected receptors. In words: Forskolin‐stimulated cAMP accumulation, parent CHO cells without transfected receptors. The settings on record: CHO cells without transfected receptors; in presence of forskolin. It is filed as cell-based, Chinese hamster.
The test system is the same in assay [16]. In words: Intracellular calcium mobilization, parent CHO cells without transfected receptors. Format: cell-based, Chinese hamster.
The mark [17] stands for this setting: Log KD α1B, ^3H‐prazosin whole cell binding, given as log KD (negative), mean ± SEM.
The mark [18] stands for this setting: Log KD, ^3H‐prazosin binding, whole‐cell binding (from Table 1), given as log KD (negative numbers).
[19] abbreviates: 3H‐prazosin binding Log KD, whole‐cell binding (from Table 1), log values given negative.
[20] abbreviates: Log KD α1D, ^3H‐prazosin whole cell binding, given as log KD (negative), mean ± SEM, 'early plateau' = specific binding not fully inhibited.

On to `Brc1c(NC2=NCCN2)ccc2nccnc12` [Brimonidine], for which, in assay [1], the “Affinity selectivity ratio α1A vs α1B” value amounted to 4.8 fold. In assay [1], the “Affinity selectivity ratio α1A vs α1D” value was determined as 1.2 fold. Also, the Kd in assay [1] is 4370 nM; in assay [2] (setting [17]), 20900 nM; in assay [2] (setting [18]), 20900 nM; in assay [3] (setting [19]) it was 5370 nM; in assay [3] (setting [20]), 5370 nM. Further, the “Affinity selectivity ratio α1B vs α1D” value in assay [3] is 3.9 fold. Moreover, the “Intracellular calcium release % ionomycin” value in assay [4] is given as 47.8 ± 4.1%; in assay [5], 35.8 ± 2.4%; in [6], “No response”. In addition, the “Log efficacy ratio KD /EC50” value in assay [4] stood at 1.57; in [5], 2.33. The EC50 in assay [4] is 117 nM; in assay [5], 97.7 nM; in [7] it was 363 nM; in assay [8], 724 nM; in assay [11] (5 h, read-out: cAMP accumulation Log EC50 (converted)), 5750 nM; in assay [12], 129 nM. Also, the values for the EC50 in assay [13] and in assay [14] were 1580 nM and 105 nM, respectively. The “Intracellular calcium release Log EC50” value in assay [6] is on record as “No response”. The “ERK1/2‐phosphorylation % PDBu” value in [7] is given as 86.4 ± 3.6%; in assay [8], 41.2 ± 6.2%; in assay [9] it was “No response”. For the same molecule, the “ERK1/2‐phosphorylation Log EC50” value in assay [9] is reported as “No response”. Also, in [10] (Cricetulus griseus, CHO, read-out: ERK1/2-phosphorylation % PDBu at 100μM), the Emax at 100 µM came to 2.3 ± 1.7%. In addition, the “cAMP accumulation % forskolin” value in [11] (% of 10 µM forskolin response) is recorded as 17.8 ± 1.7%; in assay [12] it was 4.5 ± 1.6%. Moreover, the “cAMP accumulation (in presence of forskolin) Fold increase” value in assay [13] was 1.96 ± 0.05 fold; in [14], 1.58 ± 0.07 fold. Also, the “cAMP accumulation (in presence of forskolin) Log EC50” value in assay [15] is “No response”.

In the case of `C[C@H](CCC(=O)O)C[C@H](C)C[C@H](C)C(=O)/C=C(\O)[C@H](C)C[C@H](C)C/C=C/[C@@H](C)[C@@H](O)[C@@H](C)[C@@H](O)C[C@@H]1CC[C@@](C)([C@H]2CC[C@@](C)([C@@H](C)O)O2)O1` [Ionomycin], the “Calcium response fold over basal” value in [16] stood at 27.2 ± 1.2 fold over basal.

For the molecule `Brc1c(NC2=NCCN2)ccc2nccnc12` [UK14304], in assay [1], the “Affinity selectivity ratio α1A vs α1B” value is 4.4 fold. Also, the “Affinity selectivity ratio α1A vs α1D” value in assay [1] is listed as 1.5 fold. For the same molecule, the equilibrium dissociation constant (Kd) in assay [1] is 2950 nM; in assay [2] (setting [17]), 12900 nM; in [2] (setting [18]) it was 12900 nM; in [3] (setting [19]), 4370 nM; in assay [3] (setting [20]), 4370 nM. Besides, in assay [3], the “Affinity selectivity ratio α1B vs α1D” value came out at 3.0 fold. The results for the “Intracellular calcium release % ionomycin” value in assay [4], in assay [5] and in assay [6] were 45.6 ± 1.6%, 27.5 ± 1.8% and “No response”, respectively. Besides, the “Log efficacy ratio KD /EC50” value worked out at 1.64 in assay [4] and 2.26 in [5]. The EC50 in [4] was 67.6 nM; in assay [5], 70.8 nM; in [7], 186 nM; in assay [8], 316 nM; in assay [12], 95.5 nM; in assay [13] it was 1380 nM. Besides, the EC50 in assay [14] was 97.7 nM. In addition, in [6], the “Intracellular calcium release Log EC50” value is given as “No response”. Also, the “ERK1/2‐phosphorylation % PDBu” value in [7] is given as 88.7 ± 4.3%; in assay [8], 33.8 ± 5.0%; in [9], “No response”. The “ERK1/2‐phosphorylation Log EC50” value in [9] is reported as “No response”. Moreover, the “ERK1/2-phosphorylation % PDBu” value in [10] (CHO cells without transfected receptors, maximal response as % of PDBu (10μM) response, mean ± s.e.m.) is “No response”. Moreover, in assay [10] (CHO cells without transfected receptors, mean ± s.e.m.), the “ERK1/2-phosphorylation Log EC50” value is recorded as “No response”. Further, the “cAMP accumulation % forskolin at 10 μM” value in [11] (response at 10 μM ligand, no EC50 obtained) is reported as 12.0 ± 1.1%. In addition, the “cAMP accumulation % forskolin” value in [12] was found to be 2.7 ± 0.1%. The “cAMP accumulation (in presence of forskolin) Fold increase” value in assay [13] stood at 1.95 ± 0.09 fold; in assay [14] it was 1.50 ± 0.05 fold. Moreover, the “cAMP accumulation (in presence of forskolin) Log EC50” value in assay [15] is listed as “No response”.
